Experimental data from PubChem BioAssay AID1259407 (Chemical Carcinogenesis Research Information System (CCRIS), 2018).
Active and inactive are the calls of the source. The rule behind the calls is not given here.

Test system: CCRIS mutagenicity, Ames/micronucleus/aberration tests
Test: CCRIS mutagenicity studies
[1] = Test System: AMES SALMONELLA TYPHIMURIUM, Strain/Indicator: TA98, Metabolic Activation: NONE, Method: STANDARD PLATE
[2] = Test System: AMES SALMONELLA TYPHIMURIUM, Strain/Indicator: TA98, Metabolic Activation: RAT, LIVER, MICROSOMES, AROCLOR 1254, Method: STANDARD PLATE
[3] = Test System: AMES SALMONELLA TYPHIMURIUM, Strain/Indicator: TA98, Metabolic Activation: RAT, LIVER, S-9, AROCLOR 1254, Method: STANDARD PLATE
[4] = Test System: AMES SALMONELLA TYPHIMURIUM, Strain/Indicator: TA100, Metabolic Activation: NONE, Method: STANDARD PLATE

Measured: mutagenic call

CC(=O)Nc1ccc(CC(=O)O)cc1
inactive: Test System: AMES SALMONELLA TYPHIMURIUM, Strain/Indicator: TA98, Metabolic Activation: NONE inactive; negative | Test System: AMES SALMONELLA TYPHIMURIUM, Strain/Indicator: TA98, Metabolic Activation: RAT, LIVER, S-9, AROCLOR 1254 inactive; negative | Test System: AMES SALMONELLA TYPHIMURIUM, Strain/Indicator: TA100, Metabolic Activation: NONE inactive; negative | Test System: AMES SALMONELLA TYPHIMURIUM, Strain/Indicator: TA100, Metabolic Activation: RAT, LIVER, S-9, AROCLOR 1254 inactive; negative | Test System: AMES SALMONELLA TYPHIMURIUM, Strain/Indicator: TA1535, Metabolic Activation: NONE inactive; negative | Test System: AMES SALMONELLA TYPHIMURIUM, Strain/Indicator: TA1535, Metabolic Activation: RAT, LIVER, S-9, AROCLOR 1254 inactive; negative | Test System: AMES SALMONELLA TYPHIMURIUM, Strain/Indicator: TA1537, Metabolic Activation: NONE inactive; negative | Test System: AMES SALMONELLA TYPHIMURIUM, Strain/Indicator: TA1537, Metabolic Activation: RAT, LIVER, S-9, AROCLOR 1254 inactive; negative | Test System: AMES SALMONELLA TYPHIMURIUM, Strain/Indicator: TA1538, Metabolic Activation: NONE inactive; negative | Test System: AMES SALMONELLA TYPHIMURIUM, Strain/Indicator: TA1538, Metabolic Activation: RAT, LIVER, S-9, AROCLOR 1254 inactive; negative | Test System: E. COLI, Strain/Indicator: WP2, Metabolic Activation: NONE inactive; negative | Test System: E. COLI, Strain/Indicator: WP2, Metabolic Activation: RAT, LIVER, S-9, AROCLOR 1254 inactive; negative | Test System: E. COLI, Strain/Indicator: WP2 UVRA, Metabolic Activation: NONE inactive; negative | Test System: E. COLI, Strain/Indicator: WP2 UVRA, Metabolic Activation: RAT, LIVER, S-9, AROCLOR 1254 inactive; negative

C1=Cc2c3ccc4ccccc4c3cc3cccc1c23
active: Test System: AMES SALMONELLA TYPHIMURIUM, Strain/Indicator: TA98, Metabolic Activation: HUMAN, LIVER, MICROSOMES, Method: STANDARD PLATE active; positive | Test System: AMES SALMONELLA TYPHIMURIUM, Strain/Indicator: TA98, Metabolic Activation: RAT, LIVER, HEPATOCYTES, Method: PREINCUBATION active; positive | [2] active; positive | Test System: AMES SALMONELLA TYPHIMURIUM, Strain/Indicator: TA98, Metabolic Activation: RAT, LIVER, MICROSOMES, Method: STANDARD PLATE active; positive | Test System: AMES SALMONELLA TYPHIMURIUM, Strain/Indicator: TA98, Metabolic Activation: RAT, LIVER, S-9, AROCLOR 1254 (0.4, 0.8, 1.15 OR 1.5 MG/PLATE), Method: STANDARD PLATE active; positive | [3] active; positive | Test System: AMES SALMONELLA TYPHIMURIUM, Strain/Indicator: TA98, Metabolic Activation: RAT, LUNG, MICROSOMES, AROCLOR 1254, Method: STANDARD PLATE active; positive | Test System: CHINESE HAMSTER OVARY, Strain/Indicator: V-79/6-THIOGUANINE, Metabolic Activation: RAT, LIVER, S-9, AROCLOR 1254, Method: FLASK ASSAY active; positive | Test System: CHINESE HAMSTER V-79, Strain/Indicator: V-79/6-THIOGUANINE, Metabolic Activation: RAT, LIVER, S-9, AROCLOR 1254, Method: SUSPENSION/PLATE active; positive | Test System: UDS RAT HEPATOCYTES, Strain/Indicator: THY INCORP, Metabolic Activation: NONE, Method: LIQUID SCINTILLATION COUNTING active; positive
inactive: [1] inactive; negative | Test System: AMES SALMONELLA TYPHIMURIUM, Strain/Indicator: TA98, Metabolic Activation: RAT, LUNG, MICROSOMES, Method: STANDARD PLATE inactive; negative | Test System: CHINESE HAMSTER OVARY, Strain/Indicator: V-79/6-THIOGUANINE, Metabolic Activation: SHE CELL MEDIATED, Method: FLASK ASSAY inactive; negative

N[C@H](CS)C(=O)O
inactive: Test System: AMES SALMONELLA TYPHIMURIUM, Strain/Indicator: TA92, Metabolic Activation: NONE, Method: STANDARD PLATE inactive; negative | Test System: AMES SALMONELLA TYPHIMURIUM, Strain/Indicator: TA92, Metabolic Activation: RAT, KIDNEY, S-9, Method: STANDARD PLATE inactive; negative | Test System: AMES SALMONELLA TYPHIMURIUM, Strain/Indicator: TA92, Metabolic Activation: RAT, LIVER, S-9, Method: STANDARD PLATE inactive; negative | [4] inactive; negative | Test System: AMES SALMONELLA TYPHIMURIUM, Strain/Indicator: TA100, Metabolic Activation: RAT, KIDNEY, S-9, Method: STANDARD PLATE inactive; negative | Test System: AMES SALMONELLA TYPHIMURIUM, Strain/Indicator: TA100, Metabolic Activation: RAT, LIVER, S-9, Method: STANDARD PLATE inactive; negative

Nc1ccc2nc3ccccn3c2n1
inactive: Test System: AMES SALMONELLA TYPHIMURIUM, Strain/Indicator: TA97, Metabolic Activation: NONE, Method: STANDARD PLATE inactive; negative | Test System: AMES SALMONELLA TYPHIMURIUM, Strain/Indicator: TA98, Metabolic Activation: MOUSE, LIVER, MICROSOMES, Method: STANDARD PLATE inactive; negative | [1] inactive; negative | Test System: AMES SALMONELLA TYPHIMURIUM, Strain/Indicator: TA98, Metabolic Activation: RAT, LIVER, CYTOSOL, AROCLOR 1254, Method: STANDARD PLATE inactive; negative | [2] inactive; negative | [4] inactive; negative
active: Test System: AMES SALMONELLA TYPHIMURIUM, Strain/Indicator: TA97, Metabolic Activation: RAT, LIVER, S-9, AROCLOR 1254, Method: STANDARD PLATE active; positive | Test System: AMES SALMONELLA TYPHIMURIUM, Strain/Indicator: TA98, Metabolic Activation: MONKEY, LIVER, S-9, Method: PREINCUBATION active; positive | Test System: AMES SALMONELLA TYPHIMURIUM, Strain/Indicator: TA98, Metabolic Activation: MOUSE, LIVER, MICROSOMES, TCDD, Method: STANDARD PLATE active; positive | Test System: AMES SALMONELLA TYPHIMURIUM, Strain/Indicator: TA98, Metabolic Activation: RAT, LIVER, S-9, AROCLOR 1254, Method: PREINCUBATION active; positive | [3] active; positive | Test System: AMES SALMONELLA TYPHIMURIUM, Strain/Indicator: TA100, Metabolic Activation: RAT, LIVER, S-9, AROCLOR 1254, Method: PREINCUBATION active; positive | Test System: AMES SALMONELLA TYPHIMURIUM, Strain/Indicator: TA100, Metabolic Activation: RAT, LIVER, S-9, AROCLOR 1254, Method: STANDARD PLATE active; positive | Test System: AMES SALMONELLA TYPHIMURIUM, Strain/Indicator: TA100, Metabolic Activation: RAT, LIVER, S-9, N-BENZYLIMIDAZOLE, Method: PREINCUBATION active; positive | Test System: AMES SALMONELLA TYPHIMURIUM, Strain/Indicator: YG1019, Metabolic Activation: RAT LIVER S-9, AROCLOR, Method: PREINCUBATION active; positive

CN[C@@H]1[C@@H](O)[C@@H](O[C@@H]2[C@@H](O)[C@H](O[C@H]3O[C@H](CN)[C@@H](O)[C@H](O)[C@H]3O)[C@@H](N)C[C@H]2NC(=O)[C@@H](O)CN)OC[C@]1(C)O
inactive: Test System: AMES SALMONELLA TYPHIMURIUM, Strain/Indicator: TA98, Metabolic Activation: NONE, Method: PREINCUBATION inactive; negative | Test System: AMES SALMONELLA TYPHIMURIUM, Strain/Indicator: TA100, Metabolic Activation: NONE, Method: PREINCUBATION inactive; negative | Test System: AMES SALMONELLA TYPHIMURIUM, Strain/Indicator: TA1535, Metabolic Activation: NONE, Method: PREINCUBATION inactive; negative | Test System: E. COLI, Strain/Indicator: WP2 UVRA, Metabolic Activation: NONE, Method: PREINCUBATION inactive; negative
